Data published in patent US20140045807A2, “THE USE OF 3-METHOXY-PREGNENOLONE FOR THE PREPARATION OF A DRUG FOR TREATING A TRAUMATIC BRAIN INJURY” (priority 2004, published 2014).
Converted amounts (≈) assume the structure as drawn.

Tests used:
[1] = test system: α-tubulin forms (Tyr/Glu-Tub, Acet-Tub) in rat hippocampus; assay: Microtubule dynamics in rat hippocampus after single administration; format: in vivo; conditions: 10 mg/kg subcutaneously, 3 h following injection
From the text: Mean±SEM, n=6 per group. **p<0.01, *[…] vs sesame oil.
The effects produced by neurosteroids were compared with those produced by acute administration of the antidepressant drug fluoxetine (selective serotonin reuptake inhibitor; SSRI).

[2] = molecular target: T1, human progesterone receptor(PR) (Homo sapiens, UniProt P06401); assay: Test of progesterone receptor agonist activity (luciferase transactivation, HEK293T); format: cell-based; conditions: increasing amounts, 24 hours
T1 construct: expressed in transfected cells; host or cells: HEK293T
T1 sequence (P06401 1-933): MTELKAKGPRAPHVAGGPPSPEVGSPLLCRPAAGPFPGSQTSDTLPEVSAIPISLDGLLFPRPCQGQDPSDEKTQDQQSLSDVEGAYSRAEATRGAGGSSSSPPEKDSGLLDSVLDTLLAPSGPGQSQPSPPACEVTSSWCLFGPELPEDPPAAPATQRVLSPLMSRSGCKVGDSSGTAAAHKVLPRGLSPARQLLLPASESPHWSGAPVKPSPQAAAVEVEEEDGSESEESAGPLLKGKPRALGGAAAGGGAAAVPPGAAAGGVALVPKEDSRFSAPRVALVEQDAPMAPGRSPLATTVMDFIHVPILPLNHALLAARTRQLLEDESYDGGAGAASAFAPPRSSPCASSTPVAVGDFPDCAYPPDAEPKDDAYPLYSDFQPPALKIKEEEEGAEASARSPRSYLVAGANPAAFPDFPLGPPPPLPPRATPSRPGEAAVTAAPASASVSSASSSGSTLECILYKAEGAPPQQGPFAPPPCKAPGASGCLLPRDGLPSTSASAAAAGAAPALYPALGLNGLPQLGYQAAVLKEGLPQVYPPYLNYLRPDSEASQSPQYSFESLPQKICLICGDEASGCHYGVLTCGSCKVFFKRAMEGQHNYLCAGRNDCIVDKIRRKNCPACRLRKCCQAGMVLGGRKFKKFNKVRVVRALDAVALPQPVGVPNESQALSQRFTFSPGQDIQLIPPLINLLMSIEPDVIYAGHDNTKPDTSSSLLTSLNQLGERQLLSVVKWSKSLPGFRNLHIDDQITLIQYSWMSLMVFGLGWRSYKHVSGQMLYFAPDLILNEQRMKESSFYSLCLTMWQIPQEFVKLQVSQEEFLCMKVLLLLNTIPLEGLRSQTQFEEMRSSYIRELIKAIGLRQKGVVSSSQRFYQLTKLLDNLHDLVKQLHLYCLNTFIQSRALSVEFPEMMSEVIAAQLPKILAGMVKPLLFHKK
Protocol: The main experimental setting used is the following: HEK293T cells were transiently transfected, using calcium phosphate precipitation technology, with expression vectors pSG5hPR (which permits expression of human progesterone receptor(PR)), pFC31-luc (contains the luciferase gene under the control of the MMTV promoter, which is in turn activated by binding of a progestin to progesterone receptor) and pcbetagal (which permits expression of betagalactosidase), and cultured during 24 hours with increasing amounts of various compositions: • 1. […] Test of progesterone receptor […] activity: transfected cells were cultured with progesterone (1 nM) and increasing amounts of RU486 (a well-known progesterone receptor antagonist) or 3-methoxy-pregnenolone. • With this setting, a compound with progesterone receptor antagonist activity competes with progesterone for the occupation of progesterone receptor and results in a progressive loss of transactivation activity when the amount of this compound is increased compared to progesterone.

[3] = molecular target: purified tubulin and MAP2 (Homo sapiens, UniProt P11137); assay: MAP2-induced polymerization of microtubules in vitro (optical density at 345 nm); format: biochemical
Protocol: Purified MAP2 and tubulin are mixed in the presence of GTP at 4° C. in a spectrophotometer cuvette. Polymerization is induced by heating at 37° C. and is followed by the increase in optical density (OD) which indicates the quantity of polymers formed.
This in vitro test measures the effect of molecules on the MAP2-induced polymerization of microtubules. This polymerization occurs when MAP2 proteins and tubulin are mixed at adequate concentrations in the presence of GTP. It is accompanied by an increase in optical density measured at 345 nm for 15 to 30 minutes with a UNICON spectrophotometer thermostated at 37° C. (FIG. 1).
Activity is measured by the increase in optical density at 345 nm of a mixture of purified tubulin and MAP2, incubated at 37° C. in the presence of GTP.

[4] = Solubility limit; format: physicochemical; conditions: read-out: solubility limits
[5] = Neurosteroids and 3-methoxy-PREG levels in plasma and hippocampus; conditions: rat
[6] = test system: human neuroblastoma HS-SY5Y cells; assay: Cytotoxicity of okadaic acid, steroid protection (LDH release); format: cell-based; conditions: 24 hours, simultaneous addition, increasing concentrations
From the text: FIG. 6: Toxicity of okadaic acid. Steroid protection. […] Cell death was indicated by the release of lactate dehydrogenase (LDH) in the culture medium.
Okadaic acid is a protein phosphatase inhibiter. Thus, the hyperphosphorylation of tau protein is implicated in microtubule depolymerization and in human neuroblastoma HS-SY5Y cell death. The exposure of SY5Y cell cultures to okadaic acid does in fact cause significant cell death.

[7] = test system: transgenic mice expressing the longest human tau protein isoform; assay: RotaRod test in transgenic mice expressing the longest human tau protein isoform; format: in vivo, mouse; conditions: subcutaneous implant releasing 0.38 mg of steroid per day for 90 days
From the text: FIG. 8: Effect of molecule 43B on the motor incoordination of transgenic mice expressing the longest isoform of human tau protein in their neurons. […] The maximum speed of rotation of the RotaRod drum before the […] falls is a measurement of motor coordination (higher values correspond to a better treatment effect).
In order to evaluate the therapeutic potential of 43B to treat Alzheimer-type neurodegenerative diseases, a homozygous transgenic line of mice, such as described by Götz (EMBO J. 1995; 14(7):1304-13), can be used.
These mice express the longest human tau protein isoform. They present symptoms of neurological dysfunction expressed as muscular weakness and a reduction in motor coordination which correlate histologically with the appearance of abnormal neurites and hyperphosphorylated tau proteins as is seen in Alzheimer's disease. This pathological phosphorylation decreases the affinity of tau for microtubules and favors its aggregation.
A breeding program was undertaken at Bicêtre and genotyping made it possible to select mice homozygous for the transgene. […] These implants released 0.38 mg of steroid per day for 90 days. The progression of motor incoordination was followed by repeated RotaRod tests.

[8] = 40 μM, compared to control kinetics with solvent alone
[9] = 3 h following injection, 10 mg/kg subcutaneously

Chain of purified tubulin and MAP2 (P11137 whole entry): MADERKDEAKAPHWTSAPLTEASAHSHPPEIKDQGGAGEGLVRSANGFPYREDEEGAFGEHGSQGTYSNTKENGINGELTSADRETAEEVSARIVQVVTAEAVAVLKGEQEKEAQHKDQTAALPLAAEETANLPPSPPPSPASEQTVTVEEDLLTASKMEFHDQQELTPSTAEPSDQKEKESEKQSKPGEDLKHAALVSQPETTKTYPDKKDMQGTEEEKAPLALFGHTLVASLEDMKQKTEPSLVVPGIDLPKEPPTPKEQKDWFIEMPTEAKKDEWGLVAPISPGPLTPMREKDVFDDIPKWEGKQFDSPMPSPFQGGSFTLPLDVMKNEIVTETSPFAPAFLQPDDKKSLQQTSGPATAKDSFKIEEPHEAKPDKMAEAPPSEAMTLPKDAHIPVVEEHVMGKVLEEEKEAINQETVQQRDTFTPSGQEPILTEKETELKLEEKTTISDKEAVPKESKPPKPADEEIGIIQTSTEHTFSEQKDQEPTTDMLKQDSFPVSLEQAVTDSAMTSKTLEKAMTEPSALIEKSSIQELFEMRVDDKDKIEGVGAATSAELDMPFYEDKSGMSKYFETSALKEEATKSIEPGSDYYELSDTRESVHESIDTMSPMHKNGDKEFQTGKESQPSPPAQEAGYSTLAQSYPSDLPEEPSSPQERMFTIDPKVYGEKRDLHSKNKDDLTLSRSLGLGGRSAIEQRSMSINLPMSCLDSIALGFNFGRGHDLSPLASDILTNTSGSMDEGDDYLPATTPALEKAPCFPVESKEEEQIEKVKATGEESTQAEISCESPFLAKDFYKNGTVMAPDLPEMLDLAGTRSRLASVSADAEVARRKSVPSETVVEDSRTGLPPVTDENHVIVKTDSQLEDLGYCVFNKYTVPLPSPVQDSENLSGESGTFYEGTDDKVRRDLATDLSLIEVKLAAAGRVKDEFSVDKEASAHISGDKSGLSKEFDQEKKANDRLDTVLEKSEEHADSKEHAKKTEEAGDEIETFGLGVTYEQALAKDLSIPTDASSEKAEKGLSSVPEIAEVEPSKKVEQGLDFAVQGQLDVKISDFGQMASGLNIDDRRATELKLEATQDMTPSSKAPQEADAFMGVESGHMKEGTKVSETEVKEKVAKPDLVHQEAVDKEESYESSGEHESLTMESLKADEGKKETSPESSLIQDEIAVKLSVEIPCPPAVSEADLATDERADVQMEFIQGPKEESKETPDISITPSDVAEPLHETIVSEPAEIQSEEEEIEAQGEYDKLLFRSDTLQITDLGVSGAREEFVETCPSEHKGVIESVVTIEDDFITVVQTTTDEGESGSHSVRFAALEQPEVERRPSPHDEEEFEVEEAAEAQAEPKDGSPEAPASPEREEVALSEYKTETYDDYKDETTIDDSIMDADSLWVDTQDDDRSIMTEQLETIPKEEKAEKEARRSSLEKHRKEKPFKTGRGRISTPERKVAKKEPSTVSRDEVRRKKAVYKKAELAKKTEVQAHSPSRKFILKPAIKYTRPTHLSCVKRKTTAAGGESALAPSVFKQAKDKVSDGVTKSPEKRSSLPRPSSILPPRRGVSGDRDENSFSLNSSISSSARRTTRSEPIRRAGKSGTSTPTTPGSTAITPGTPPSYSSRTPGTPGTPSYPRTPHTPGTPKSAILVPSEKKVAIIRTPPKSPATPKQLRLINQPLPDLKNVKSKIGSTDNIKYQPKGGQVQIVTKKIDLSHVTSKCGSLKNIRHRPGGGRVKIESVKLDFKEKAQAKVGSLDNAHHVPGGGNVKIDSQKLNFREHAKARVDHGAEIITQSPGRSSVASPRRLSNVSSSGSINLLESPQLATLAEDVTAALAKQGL

CO[C@H]1CC[C@@]2(C)C(=CC[C@H]3[C@@H]4CC[C@H](C(C)=O)[C@@]4(C)CC[C@@H]32)C1 [3-methoxy-PREG, 3β-methoxy-pregna-5-ene-20-one]
Acet-Tub (marker of stable microtubules) [1]: significantly decreased | Tyr/Glu-Tub ratio (index of microtubule dynamics) [1]: significantly increased | progesterone receptor agonist (transactivation) activity [2]: does not have progesterone receptor agonist activity | Lag time of microtubule polymerization [3, 8]: decreased | polymerization rate and quantity of microtubules [3, 8]: clearly increase | effect on microtubule polymerization ([3]; MAP2 and tubulin with GTP, 37° C.): activates microtubule polymerization | Activity (increase in optical density at 345 nm) ([3]; purified tubulin and MAP2, 37° C., GTP): 100% of PREG | solubility [4]: ~50 µM (≈ 16.5 µg/mL) | conversion back to PREG or metabolism to PROG ([5]; 3 h after 10 mg/kg subcutaneously): not converted back to PREG or metabolized to PROG | concentration of the drug in hippocampus [5, 9]: 73.3 ± 14.68 ng/g | concentration of the drug in plasma [5, 9]: 21.11 ± 5.04 ng/mL | cell death caused by okadaic acid (LDH release) [6]: the same effect, only much stronger | motor dysfunction (RotaRod) [7]: beneficial effect on motor dysfunction
